The text below walks through data of US12617785B2, “Pyrrolo[2,3-b]pyridine-3-carboxamide compositions and methods for ameliorating hearing loss” (priority 2020, dated 2026).

By IC50 is commonly meant the midpoint of a concentration-inhibition curve.

One assay concerns Yap. As to the kind of experiment: Yap phosphorylation by western blot in cultured utricles. Particulars: utricles from adult mice. The assay is classed as cell-based. The procedure: (§1) The compound T01 was tested extensively to explore its mechanism of action and its utility in regenerating hair cells of the ear. The effects of the compounds were tested on utricles isolated from mice eight to twelve weeks of age. Internal ears were dissected from mice euthanized with fluothane and placed into ice-cold Hank's balanced salt solution, and cultured as previously described by Gnedeva, K. & Hudspeth [Proc. Natl. Acad. Sci. 112, 14066-14071 (2015)].
(§2) ; T01-treated=250 EdU+ supporting cells; […]
Background: A western blot detects proteins with antibodies after separation by electrophoresis.

Assay [1] deals with adult utricular supporting cells. As to the kind of experiment: EdU proliferation assay in cultured adult utricles. Particulars: after 5 days of treatment; control=20; p=0.021. In kind it is cell-based, mice. The procedure: as §1
For proliferation assays, utricles were cultured with 10 μM 5-ethynyl-2′-deoxyuridine (EdU) that was detected with click chemistry.
as §2

For assay [2], the target named is T1, Lats1 (Homo sapiens, UniProt O95835).
T1 construct: purchased Carna 01-123
T1 sequence (O95835 1-1130): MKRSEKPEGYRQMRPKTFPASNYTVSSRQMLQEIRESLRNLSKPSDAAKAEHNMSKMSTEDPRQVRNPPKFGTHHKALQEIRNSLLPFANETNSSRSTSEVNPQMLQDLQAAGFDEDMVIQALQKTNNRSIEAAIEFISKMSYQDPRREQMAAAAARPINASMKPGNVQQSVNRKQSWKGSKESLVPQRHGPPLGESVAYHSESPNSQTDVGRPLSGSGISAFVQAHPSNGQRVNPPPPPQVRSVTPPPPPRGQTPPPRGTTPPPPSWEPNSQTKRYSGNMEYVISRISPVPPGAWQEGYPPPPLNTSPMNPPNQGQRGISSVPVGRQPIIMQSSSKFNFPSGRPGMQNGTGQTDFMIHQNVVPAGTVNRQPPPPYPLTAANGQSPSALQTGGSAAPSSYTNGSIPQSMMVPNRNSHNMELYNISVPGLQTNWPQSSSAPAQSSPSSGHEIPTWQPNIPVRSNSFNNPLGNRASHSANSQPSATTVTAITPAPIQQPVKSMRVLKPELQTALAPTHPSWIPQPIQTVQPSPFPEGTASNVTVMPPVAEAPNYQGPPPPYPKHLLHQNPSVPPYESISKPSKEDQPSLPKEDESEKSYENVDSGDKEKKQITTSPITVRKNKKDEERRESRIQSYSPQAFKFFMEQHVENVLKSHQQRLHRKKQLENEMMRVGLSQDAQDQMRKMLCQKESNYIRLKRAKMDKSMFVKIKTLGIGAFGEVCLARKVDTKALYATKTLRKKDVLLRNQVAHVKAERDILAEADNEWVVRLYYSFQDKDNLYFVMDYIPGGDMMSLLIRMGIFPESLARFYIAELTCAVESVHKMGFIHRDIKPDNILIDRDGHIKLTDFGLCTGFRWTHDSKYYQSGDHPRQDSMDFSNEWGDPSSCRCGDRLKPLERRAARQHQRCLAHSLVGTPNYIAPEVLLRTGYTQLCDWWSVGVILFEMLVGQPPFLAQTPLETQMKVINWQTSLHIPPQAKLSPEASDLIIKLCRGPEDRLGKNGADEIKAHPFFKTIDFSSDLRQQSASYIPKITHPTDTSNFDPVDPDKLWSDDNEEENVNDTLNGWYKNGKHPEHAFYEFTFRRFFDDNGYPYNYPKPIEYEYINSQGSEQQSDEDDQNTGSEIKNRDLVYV
As to the kind of experiment: In vitro kinase assay (HTRF KinEASE-STK S1) Lats1, 2 mM ATP. In kind it is biochemical. As for the experimental part: (§3) Reactions were conducted with 10 μM STK1 substrate and 10 μM ATP or 2 mM ATP as shown below. […] The enzyme, substrate, ATP, and test compound of the invention were combined in a low-volume 384-well plate and shaken for 50 min at room temperature, unless otherwise indicated. The reaction was stopped by adding the detection reagents, which were prepared at an 8:1 biotin:streptavidin ratio and shaking for 60 min at room temperature. All reactions were conducted in triplicate and a Synergy NEO (Biotek) was used to detect the signal.
Assay was carried out in a 384 well plate. Each drug dosage curve was done with 16 points of 3-fold dilutions in 100% DMSO, and triplicate.

The target of assay [3] is T1, Lats1. Description: In vitro kinase assay (HTRF KinEASE-STK S1) Lats1, 10 uM ATP. The assay is classed as biochemical. As for the experimental part:
IVKA assay at 10 uM method:
as §3
Background: Time-resolved FRET reads energy transfer from a long-lived donor to a nearby acceptor.

Setting [4] is: 2 mM ATP, read-out: LATS1_HTRF_2 mM ATP IC50.
[5] abbreviates: 10 uM ATP, read-out: LATS1_HTRF_10 uM ATP IC50.

For the compound `O=C(/N=c1\sccn1Cc1ccccc1)c1c[nH]c2ncccc12` [T01, (Z)—N-(3-benzylthiazol-2(3H)-ylidene)-1H-pyrrolo[2,3-b]pyridine-3-carboxamide], the “level of Yap phosphorylation as detected by western blot” value with Yap is reported as “striking reduction”. The “EdU+ supporting cells” value in assay [1] amounted to 250.

For `O=C(/N=c1\sccn1-c1ccccc1)c1c[nH]c2ncccc12` [T14], the IC50 on Lats1 [2] (setting [4]) turned out to be 3 nM; on Lats1 [3] (setting [5]), 0.3 nM.

In the case of `O=C(/N=c1\occn1Cc1ccccc1)c1c[nH]c2ncccc12` [T25], the results for the concentration for half-maximal inhibition (IC50) at Lats1 [2] (setting [4]) and on Lats1 [3] (setting [5]) were 59.2 nM and 1.9 nM, respectively.

Take `Cn1ccs/c1=N\C(=O)c1c[nH]c2ncccc12` [T37, (Z)—N-(3-methylthiazol-2(3H)-ylidene)-1H-pyrrolo[2,3-b]pyridine-3-carboxamide]: the IC50 on Lats1 [3] (setting [5]) is 233 nM.

For `CCn1ccs/c1=N\C(=O)c1c[nH]c2ncccc12` [T38, (Z)—N-(3-ethylthiazol-2(3H)-ylidene)-1H-pyrrolo[2,3-b]pyridine-3-carboxamide], the IC50 on Lats1 [3] (setting [5]) is 27 nM.

Regarding `CC(c1ccccc1)n1ccs/c1=N\C(=O)c1c[nH]c2ncccc12` (stereo not shown) [T39, (Z)—N-(3-(1-Phenylethyl)thiazol-2(3H)-ylidene)-1H-pyrrolo[2,3-b]pyridine-3-carboxamide], the IC50 came to 59.2 nM at Lats1 [2] and 1.9 nM at Lats1 [3].

On to `O=C(/N=c1\sccn1CCc1ccccc1)c1c[nH]c2ncccc12` [T40], for which the IC50 on Lats1 [3] (setting [5]) was 88.7 nM.

Take `CC(N)CCn1ccs/c1=N\C(=O)c1c[nH]c2ncccc12` (stereo not shown) [T41, (Z)—N-(3-(3-aminobutyl)thiazol-2(3H)-ylidene)-1H-pyrrolo[2,3-b]pyridine-3-carboxamide]: the IC50 on Lats1 [2] (setting [4]) came to 303 nM; on Lats1 [3] (setting [5]), 4.4 nM.

In the case of `N#Cc1ccccc1Cn1ccs/c1=N\C(=O)c1c[nH]c2ncccc12` [T42, (Z)—N-(3-(2-cyanobenzyl)thiazol-2(3H)-ylidene)-1H-pyrrolo[2,3-b]pyridine-3-carboxamide], the IC50 on Lats1 [3] (setting [5]) was determined as 12.9 nM.

Turning to `NCc1ccccc1Cn1ccs/c1=N\C(=O)c1c[nH]c2ncccc12` [T43, (Z)—N-(3-(2-(aminomethyl)benzyl)thiazol-2(3H)-ylidene)-1H-pyrrolo[2,3-b]pyridine-3-carboxamide], the IC50 was 141 nM on Lats1 [2] (setting [4]) and 2.2 nM on Lats1 [3] (setting [5]).

As for `N#Cc1cccc(Cn2ccs/c2=N\C(=O)c2c[nH]c3ncccc23)c1` [T44, (Z)—N-(3-(3-cyanobenzyl)thiazol-2(3H)-ylidene)-1H-pyrrolo[2,3-b]pyridine-3-carboxamide], the IC50 on Lats1 [3] (setting [5]) stood at 260 nM.

Regarding `NCc1cccc(Cn2ccs/c2=N\C(=O)c2c[nH]c3ncccc23)c1` [T45, (Z)—N-(3-(3-(aminomethyl)benzyl)thiazol-2(3H)-ylidene)-1H-pyrrolo[2,3-b]pyridine-3-carboxamide], the IC50 was 309 nM on Lats1 [2] (setting [4]) and 30.7 nM at Lats1 [3] (setting [5]).

`N#Cc1ccc(Cn2ccs/c2=N\C(=O)c2c[nH]c3ncccc23)cc1` [T46, (Z)—N-(3-(4-cyanobenzyl)thiazol-2(3H)-ylidene)-1H-pyrrolo[2,3-b]pyridine-3-carboxamide]: the IC50 on Lats1 [3] (setting [5]) is 391 nM.

`NCc1ccc(Cn2ccs/c2=N\C(=O)c2c[nH]c3ncccc23)cc1` [T47, (Z)—N-(3-(4-(aminomethyl)benzyl)thiazol-2(3H)-ylidene)-1H-pyrrolo[2,3-b]pyridine-3-carboxamide]: the IC50 at Lats1 [3] (setting [5]) came out at 83.2 nM.

As for `O=Cc1ccc(Cn2ccs/c2=N\C(=O)c2c[nH]c3ncccc23)cc1` [T48, (Z)—N-(3-(4-formylbenzyl)thiazol-2(3H)-ylidene)-1H-pyrrolo[2,3-b]pyridine-3-carboxamide], the IC50 on Lats1 [3] came to 800 nM.

With `Cc1cs/c(=N\C(=O)c2c[nH]c3ncccc23)n1Cc1ccccc1` [T49], the IC50 was determined as 0.5 nM on Lats1 [2] and 2.7 nM on Lats1 [3].

`Cn1nccc1Cn1ccs/c1=N\C(=O)c1c[nH]c2ncccc12` [T58]: the IC50 on Lats1 [3] (setting [5]) was found to be 128 nM.
